Experimental data reported in ChEMBL document CHEMBL1121604, “Cerebrovasodilatation through selective inhibition of the enzyme carbonic anhydrase. 2. Imidazo[2,1-b]thiadiazole and imidazo[2,1-b]thiazolesulfonamides” (J Med Chem, 1980).

Legend:
[1] = pKa of the compound was determined; type: physicochemical
[2] = species on record: Mus musculus; test: Anticonvulsant potency in mice relative to compound UK-12130 (ED50 of compound 24/compound); type: functional
[3] = tested on: Mus musculus; test: Protective dose against maximal electroshock in mice after peroral administration; type: functional; details: po
[4] = Partition coefficient (logP); type: physicochemical; details: octanol/water

| Structure (SMILES) | pKa [1] | Potency ratio [2] | ED50 [3] [mg/kg] | logP [4] |
| --- | --- | --- | --- | --- |
| NS(=O)(=O)c1nn2cc(-c3ccccc3)nc2s1 | 7.12 | 0.6 | 16 | – |
| NS(=O)(=O)c1nn2c(-c3ccccc3)cnc2s1 | – | 0.4 | > 16 | – |
| CC(C)(C)c1cn2nc(S(N)(=O)=O)sc2n1 | 6.94 | 3.2 | 2.6 | – |
| COc1ccc(-c2cn3nc(S(N)(=O)=O)sc3n2)cc1 | – | <0.6 | > 16 | – |
| CC(=O)Nc1ccc(-c2cn3nc(S(N)(=O)=O)sc3n2)cc1 | – | <0.4 | > 16 | – |
| NS(=O)(=O)c1nn2cc(-c3ccc(O)cc3)nc2s1 | 8.16 | 0.9 | 10 | – |
| NS(=O)(=O)c1nn2cc(-c3ccccc3O)nc2s1 | – | <0.6 | > 16 | – |
| CC(C)(C)c1cn2cc(S(N)(=O)=O)sc2n1 | 8.37 | 1.7 | 7 | – |
| Cc1ccc(-c2cn3nc(S(N)(=O)=O)sc3n2)cc1 | – | <0.6 | > 16 | – |
| NS(=O)(=O)c1nn2cc(-c3cccs3)nc2s1 | – | <0.4 | > 16 | – |
| Br.Cc1cn2nc(S(N)(=O)=O)sc2n1 | – | 2.2 | 5 | – |
| Br.CCc1nc2sc(S(N)(=O)=O)nn2c1C | – | 1 | 8 | – |
| Br.NS(=O)(=O)c1cn2ccnc2s1 | – | 0.7 | 16 | – |
| Br.NS(=O)(=O)C1=NN2C(=NC3CCCCC32)S1 (configuration not stated) | – | <0.5 | > 16 | – |
| Br.NS(=O)(=O)c1nn2ccnc2s1 | – | 1.4 | 8 | – |
| Br.CCc1cn2nc(S(N)(=O)=O)sc2n1 | – | 1.6 | 5 | – |
| Br.Cc1cn2cc(S(N)(=O)=O)sc2n1 | – | 1.3 | 6 | – |
| Br.Cc1nc2sc(S(N)(=O)=O)nn2c1C | – | 0.6 | 12 | – |
| Br.NS(=O)(=O)c1nn2cc(C34CC5CC(CC(C5)C3)C4)nc2s1 | – | 1 | 6 | – |
| CC(=O)Nc1nnc(S(N)(=O)=O)s1 [ACETAZOLAMIDE] | – | – | 36 | – |
| CC(=O)/N=c1/sc(S(N)(=O)=O)nn1C [METHAZOLAMIDE] | 7.2 | 0.75 | 12 | 0.2 |
